Experimental findings from patent US20220151985A1, “IMMUNOSTIMULATOR AND FOOD OR BEVERAGE FOR IMMUNOSTIMULATION” (AMINO UP CO., LTD., priority 2019, published 2022) are described below.

Each structure is given as a SMILES string.

Assay [1] relates to mouse-derived macrophage-like cell line (RAW264). As to the kind of experiment: TNF-α production-inducing activity in cells. Type of assay: cell-based. The settings on record: 24 hours. How it is done: A TNF-α production-inducing activity in a mouse-derived macrophage-like cell line (RAW264, provided: RIKEN BioResource Research Center) was investigated. Using, as test samples, AU-1833C (synthesized in Example 1), lentinan (product name: Lentinan, manufactured by FUJIFILM Wako Pure Chemical Corporation) and fucoidan (product name: Fucoidan Fucus vesiculosus-derived, manufactured by Sigma-Aldrich Co. LLC), test sample solutions were prepared so that the final concentrations of the test samples were 50, 100, and 200 μg/mL. First, all test samples were dissolved in dimethylsulfoxide (DMSO) so as to have a 1,000-fold concentration of the final concentration, and then 100-fold dilution was carried out with deionized water thereby to prepare test sample solutions having a 10-fold concentration (including 1% DMSO) of the final concentrations. […] A ratio of a TNF-α concentration in each test sample group relative to a TNF-α concentration in the non-treated group was calculated from the measured TNF-α concentrations and defined as the TNF-α production-inducing activity.

Assay [2] has as its system peritoneal exudate cell (PEC) count. As to the kind of experiment: PEC count in mice after intraperitoneal administration. Type of assay: in vivo, Slc: ddY mice. As to conditions: intraperitoneal injection of 200 μL of 10 mg/mL, 22 hours after administration, compared with control non-treated mice (FIG. 4(a)). The protocol:
The test sample AU-1833C was dissolved in DMSO so as to be 50 mg/mL and then diluted five-fold with saline (product name: Otsuka normal saline, manufactured by Otsuka Pharmaceutical Co., Ltd.) to prepare a test sample solution of 10 mg/mL (including 20% DMSO). The animals used were Slc: ddY mice (female, 6-week old) and grouped as follows. The mice purchased at the age of 5 weeks were acclimated for 5 days under a condition of free access to water and feed (regular diet (product name: CE-2, manufactured by CLEA Japan, Inc.)). […] The mice after a lapse of 22 hours from administration were sacrificed under isoflurane anesthesia, 5 mL of saline was intraperitoneally injected, the abdominal area was rubbed about 10 times, and then intraperitoneal cells were collected by collecting the saline from the abdominal cavity. Using a portion of the collected saline and a Turk's solution (product name: Turk's solution, manufactured by Wako Pure Chemical Industries, Ltd.), a concentration of PEC (cells/mL), intraperitoneally exudated nucleated cells such as white blood cells, was measured. The measured PEC concentration was multiplied by the amount of saline intraperitoneally injected (5 mL) to calculate a PEC count per mouse (cells/mouse).

Assay [3] has as its system TNF-α production of PEC. As to the kind of experiment: Amount of induced TNF-α production of PEC from treated mice when treated with LPS. Type of assay: in vivo, Slc: ddY mice. As to conditions: PEC collected 22 hours after intraperitoneal administration, LPS 100 ng/mL for 3 hours. How it is done: The test sample AU-1833C was dissolved in DMSO so as to be 50 mg/mL and then diluted five-fold with saline (product name: Otsuka normal saline, manufactured by Otsuka Pharmaceutical Co., Ltd.) to prepare a test sample solution of 10 mg/mL (including 20% DMSO).
The animals used were Slc: ddY mice (female, 6-week old) and grouped as follows.
The mice purchased at the age of 5 weeks were acclimated for 5 days under a condition of free access to water and feed (regular diet (product name: CE-2, manufactured by CLEA Japan, Inc.)). Body weights of the mice after acclimation at the age of 6 weeks were measured and the mice were grouped based on the measured values so that there was no difference in the body weight among the groups. 200 μL of the test sample solutions or 20% DMSO saline as the non-treated group was respectively administered to the mice by intraperitoneal injection. […] Using a portion of the collected saline and a Turk's solution (product name: Turk's solution, manufactured by Wako Pure Chemical Industries, Ltd.), a concentration of PEC (cells/mL), intraperitoneally exudated nucleated cells such as white blood cells, was measured. The measured PEC concentration was multiplied by the amount of saline intraperitoneally injected (5 mL) to calculate a PEC count per mouse (cells/mouse). […]

Take `O=C1OCCCCCCOC(=O)c2ccccc2C(=O)OCCCCCCOC(=O)c2ccccc21` [AU-1833C, 7,8,9,10,11,12,19,20,21,22,23,24-dodecahydro-dibenzo[1,6,13,18]-tetraoxacyclooctadecine-2,5,14,17-tetrone]: in assay [1] (RAW264 cells, 50, 100 and 200 μg/mL, ELISA, compared with control non-treated group (FIG. 3)), the “TNF-α production-inducing activity (ratio of TNF-α concentration relative to non-treated group)” value is listed as “significantly higher than that of the control non-treated group”. Also, the “TNF-α production-inducing activity compared with lentinan and fucoidan at the same concentration” value in assay [1] (RAW264 cells, each of 50, 100 and 200 μg/mL, ELISA (FIG. 3)) is “significantly higher than those of lentinan and fucoidan at the same concentration”. Besides, in assay [2], the PEC counts result is “significantly higher PEC counts”. Besides, in assay [3] (compared with control non-treated mice (FIG. 4(b))), the “TNF-α production amount per cell in PEC” value is on record as “significantly higher TNF-α production amount per cell in PEC”. Besides, the “PEC-derived TNF-α production amount per mouse” value in assay [3] (compared with control non-treated mice (FIG. 4(c))) was “significantly higher PEC-derived TNF-α production amount per mouse”.
